Each compound was assayed against T1, CDK2/Cyclin E complex (Homo sapiens, UniProt P24941) (assay: CDK2/Cyclin E fluorescence-based microfluidic mobility shift assay (CDK2 Biochemical Caliper Assay)). Details: read-out: Biochemical CDK2/CyclinE Caliper IC50.
T1 construct: purchased Eurofins 14-475
How it was run: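 Wild-type CDK2/Cyclin E was preincubated with compound and ATP for 30 min at RT before the 5-FAM-QSPKKG peptide was added. Final concentrations were 0.1 nM enzyme, 2000 uM ATP, 1.5 uM peptide and 1% DMSO. After 20 hr at RT and EDTA stop, substrate conversion was read by microfluidic mobility shift over an 11-point, 3-fold dilution series.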

| IC50 [nM] | SMILES |
| --- | --- |
| ≤ 100 | Cc1cc(CC(=O)Nc2cc([C@H]3C[C@@H](OC(=O)NC4(C)CC4)CO3)[nH]n2)on1 (single isomer, unassigned) [Example 101] |
| 1000 to 100000 | CC(C)NC(=O)N[C@@H]1CC[C@H](c2cc(Nc3ncccn3)n[nH]2)C1 (single isomer, unassigned) [Example 86] |
| ≤ 100 | COCc1cc2c(Nc3cc([C@H]4C[C@@H](OC(=O)N[C@H](C)C(F)(F)F)CO4)[nH]n3)nccn2n1 [Example 720] |
| ≤ 100 | COCc1cc2c(Nc3cc([C@H]4C[C@@H](OC(=O)N[C@@H](C)C5CC5)CO4)[nH]n3)nccn2n1 [Example 656] |
| ≤ 100 | C[C@H](NC(=O)O[C@H]1CO[C@@H](c2cc(NC(=O)c3cc(OCC(F)F)nn3C)n[nH]2)C1)C1CC1 [Example 916] |
| ≤ 100 | Cc1cc(CC(=O)Nc2cc([C@H]3CC[C@@H](OC(=O)N4CC5C(C4)C5(C)C)C3)[nH]n2)on1 (stereo partly drawn) [Example 661] |
| 1000 to 100000 | COc1cnc2ncnc(Nc3cc(C4CCCC4)[nH]n3)c2c1 [Example 865] |
| ≤ 100 | COCc1cc2c(Nc3cc([C@H]4C[C@@H](OC(=O)NC5(C)CCC5)CO4)[nH]n3)nccn2n1 [Example 674] |
| 250 to 1000 | Cc1cc(CC(=O)Nc2cc([C@@H]3CC[C@H](N4CC5(CC5)NC4=O)C3)[nH]n2)on1 (single isomer, unassigned) [Example 338] |
| ≤ 100 | C[C@@H](NC(=O)O[C@H]1CO[C@@H](c2cc(NC(=O)c3cc(OCC(F)F)nn3C)n[nH]2)C1)C1CC1 [Example 915] |
| ≤ 100 | COCc1cc(C(=O)Nc2cc([C@@H]3CC[C@H](Oc4nnccc4-c4ccccc4)C3)[nH]n2)n(C)n1 (single isomer, unassigned) [Example 475] |
| ≤ 100 | Cc1cc(CC(=O)Nc2cc([C@H]3C[C@@H](COC(=O)NC(C)C)C3)[nH]n2)on1 [Example 125] |
| 100 to 250 | C#CC1CN(C(=O)O[C@@H]2CC[C@H](c3cc(NC(=O)Cc4cc(C)no4)n[nH]3)C2)C1 [Example 660] |
| ≤ 100 | COCc1cc2c(Nc3cc([C@H]4C[C@@H](OC(=O)N[C@H]5C[C@@H]5C)CO4)[nH]n3)nccn2n1 [Example 687] |
| ≤ 100 | Cc1cc(CC(=O)Nc2cc([C@H]3CC[C@@H](OC(=O)N4C[C@@H]5[C@@H](CF)[C@@H]5C4)C3)[nH]n2)on1 [Example 662] |
| ≤ 100 | CC(C)NC(=O)O[C@H]1CC[C@@H](c2cc(Nc3ncnc4ncsc34)n[nH]2)C1 [Example 426] |
| ≤ 100 | COCc1nc2ccnc(Nc3cc([C@H]4CC[C@@H](OC(=O)NC(C)C)C4)[nH]n3)c2s1 (single isomer, unassigned) [Example 398] |
| 100 to 250 | Cn1cc2c(Nc3cc([C@H]4C[C@@H](OC(=O)NC5(C)CC5)CO4)[nH]n3)nccc2n1 [Example 745] |
| 1000 to 100000 | Cc1cc(CC(=O)Nc2cc(N3CC[C@H](COC(=O)NC4(C)CC4)C3)[nH]n2)on1 [Example 51] |
| 1000 to 100000 | CC(C)c1cc(Nc2cc(C3CCCC3)[nH]n2)n2ncnc2n1 [Example 817] |
| ≤ 100 | CC[C@H](C)NC(=O)O[C@H]1CO[C@@H](c2cc(Nc3nccn4nc(COC)cc34)n[nH]2)C1 [Example 675] |
| 1000 to 100000 | Cc1cc(CC(=O)Nc2cc(C34CCC(CC3)C4)[nH]n2)on1 [Example 244] |
| 250 to 1000 | Cc1cc(CC(=O)Nc2cc([C@@H]3CC[C@H](Oc4cnccc4C4CC4)C3)[nH]n2)on1 (single isomer, unassigned) [Example 382] |
| ≤ 100 | COCC1(NC(=O)O[C@H]2CO[C@@H](c3cc(NC(=O)c4cc(COC(F)(F)F)nn4C)n[nH]3)C2)CC1 [Example 885] |

| IC50 [nM] | SMILES |
| --- | --- |
| ≤ 100 | Cc1cc(CC(=O)Nc2cc([C@@H]3CC[C@H](OC(=O)CC(C)C)C3)[nH]n2)on1 (single isomer, unassigned) [Example 353] |
| 250 to 1000 | Cc1cc(CC(=O)Nc2cc(-c3csc4cnc(NC(C)C)nc34)[nH]n2)on1 [Example 336] |
| 250 to 1000 | COCc1cc(C(=O)Nc2cc([C@H]3CC[C@@H](Oc4nccnc4C)C3)[nH]n2)n(C)n1 (single isomer, unassigned) [Example 494] |
| ≤ 100 | COCc1cc(C(=O)Nc2cc([C@H]3CC[C@@H](Oc4cnccc4C4CC4)C3)[nH]n2)n(C)n1 (single isomer, unassigned) [Example 393] |
| ≤ 100 | COCc1cc(C(=O)Nc2cc([C@H]3C[C@@H](COc4nscc4C4CC4)C3)[nH]n2)n(C)n1 [Example 454] |
| 100 to 250 | Cc1cc(CC(=O)Nc2cc([C@H]3C[C@@H](OC(=O)NC(C)C)CO3)[nH]n2)on1 (single isomer, unassigned) [Example 346] |
| ≤ 100 | CC(C)NC(=O)OC[C@H]1C[C@@H](c2cc(NC(=O)c3cc(COC(F)F)nn3C)n[nH]2)C1 [Example 650] |
| 1000 to 100000 | COCc1cc2c(Nc3cc([C@H]4C[C@@H](OC(=O)N[C@H](C)C5(C)COC5)CO4)[nH]n3)nccn2n1 [Example 685] |
| 250 to 1000 | Cc1cc(CC(=O)Nc2cc([C@@H]3CC[C@H](OC(=O)[C@@H](N)C(C)C)C3)[nH]n2)on1 (single isomer, unassigned) [Example 469] |
| ≤ 100 | Cn1nc(COC(F)(F)F)cc1C(=O)Nc1cc([C@H]2C[C@@H](OC(=O)NC34C5C6C7C5C3C7C64)CO2)[nH]n1 (stereo partly drawn) [Example 884] |
| 1000 to 100000 | Cc1cc(CC(=O)Nc2cc([C@H]3CC[C@@H](COC(=O)NC(C)C)CC3)[nH]n2)on1 [Example 135] |
| 1000 to 100000 | COCc1cc2c(Nc3cc([C@H]4CC[C@@H](Oc5cccnc5)C4)[nH]n3)nccn2n1 (single isomer, unassigned) [Example 525] |
| ≤ 100 | CC(C)NC(=O)O[C@@H]1CC[C@H](c2cc(NC(=O)c3cc(CN4CC(F)(F)C4)nn3C)n[nH]2)C1 [Example 672] |
| 1000 to 100000 | Cc1cc(CC(=O)Nc2cc([C@H]3CCC[C@H](OC(=O)NC4(C)CC4)CC3)[nH]n2)on1 (single isomer, unassigned) [Example 26] |
| ≤ 100 | CC1(NC(=O)O[C@H]2CO[C@@H](c3cc(Nc4ncnn5cccc45)n[nH]3)C2)CC1 [Example 722] |
| 100 to 250 | Cc1cc(CC(=O)Nc2cc([C@H]3CC[C@@H](OC(=O)N4CC5CC(F)(C5)C4)C3)[nH]n2)on1 [Example 664] |
| 1000 to 100000 | COCc1cc(C(=O)Nc2cc([C@H]3CC[C@@H](Cc4ncc(C)s4)C3)[nH]n2)n(C)n1 (single isomer, unassigned) [Example 554] |
| ≤ 100 | COCc1cc(C(=O)Nc2ncc([C@@H]3C[C@H](OC(=O)NC4(C)CC4)CO3)s2)n(C)n1 (single isomer, unassigned) [Example 900] |
| 1000 to 100000 | COCCOc1ccnc(Nc2cc(C3CCCC3)[nH]n2)n1 [Example 811] |
| ≤ 100 | CC1(NC(=O)O[C@H]2CO[C@@H](c3cc(Nc4nccn5nc(C6CC6)cc45)n[nH]3)C2)CC1 [Example 754] |
| ≤ 100 | Cn1nc(COC(F)(F)F)cc1C(=O)Nc1cc([C@@H]2C[C@H](OC(=O)NC3(C)COC3)CO2)[nH]n1 [Example 893] |
| 250 to 1000 | COCc1cc(C(=O)Nc2cc([C@H]3CC[C@@H](Oc4ccc(C(C)C)nn4)C3)[nH]n2)n(C)n1 (single isomer, unassigned) [Example 415] |
| 1000 to 100000 | Cc1cc(CC(=O)Nc2cc([C@H]3C[C@H](COc4nscc4C4CC4)C3)[nH]n2)on1 [Example 369] |
| 1000 to 100000 | CC(C)c1[nH]ncc1OC[C@H]1C[C@H](c2cc(Nc3nccn4nccc34)n[nH]2)C1 [Example 583] |

From patent publication US20240190855A1 (Relay Therapeutics, Inc., priority 2021, published 2024)
